According to US20150105252A1, “SUBSTITUTED PYRAZOLES AS HERBICIDES” (E I DU PONT DE NEMOURS AND COMPANY, priority 2013, published 2015):

Tests used:
ryegrass, Italian = test: Test E preemergence; format: in vivo, Lolium multiflorum; conditions: 21 days, scale 0 to 100
Description: (§1) Seeds of plant species selected from bermudagrass (Cynodon dactylon), Surinam grass (Brachiaria decumbens), crabgrass, large (large crabgrass, Digitaria sanguinalis), crabgrass, naked (naked crabgrass, Digitaria nuda), foxtail, green (green foxtail, Setaria viridis), johnsongrass (Sorghum halepense), kochia (Kochia scoparia), morningglory (pitted morningglory, Ipomoea lacunosa), nutsedge, purple (purple nutsedge, Cyperus rotundus), ragweed (common ragweed, Ambrosia elation), mustard, black (black mustard, Brassica nigra), guineagrass (Panicum maximum), dallisgrass (Paspalum dilatatum), barnyardgrass (Echinochloa crus-galli), sandbur (southern sandbur, Cenchrus echinatus), sowthistle (common sowthistle, Sonchus oleraceous), ryegrass, Italian (Italian ryegrass, Lolium multiflorum), signalgrass (broadleaf signalgrass, Brachiaria platyphylla), dayflower, VA (Virginia (VA) dayflower, Commelina virginica), bluegrass (annual bluegrass, Poa annua), quackgrass (Elytrigia repens), mallow (common mallow, Malva sylvestris), buckwheat, wild (wild buckwheat, Polygonum convolvulus), leafy spurge (Euphorbia esula), common chickweed (Stellaria media), wild poinsettia (Euphorbia heterophylla), pigweed, palmer (palmer pigweed, Amaranthus palmeri), and pigweed (redroot pigweed, Amaranthus retroflexus) were planted into a blend of loam soil and sand and treated preemergence with test chemicals formulated in a non-phytotoxic solvent mixture which included a surfactant.
(§2) Treated plants and controls were maintained in a greenhouse for 21 days, after which time all species were compared to controls and visually evaluated. Plant response ratings, summarized in Table E, are based on a scale of 0 to 100 where 0 is no effect and 100 is complete control. A dash (-) response means no test result.

sandbur = test: Test E preemergence; format: in vivo, Cenchrus echinatus; conditions: 21 days, scale 0 to 100
Description: as §1, §2

bluegrass = test: Test E preemergence; format: in vivo, Poa annua; conditions: 21 days, scale 0 to 100
Description: as §1, §2

horseweed = test: Test F postemergence; format: in vivo, Conyza canadensis; conditions: scale 0 to 100
Description: (§3) Seeds of plant species selected from corn (Zea mays), soybean (Glycine max), velvetleaf (Abutilon theophrasti), lambsquarters (Chenopodium album), wild poinsettia (Euphorbia heterophylla), pigweed, palmer (palmer pigweed, Amaranthus palmeri), common waterhemp (Amaranthus rudis), surinam grass (Brachiaria decumbens), large crabgrass (Digitaria sanguinalis), crabgrass, Brazil (Brazilian crabgrass, Digitaria horizontalis), fall panicum (Panicum dichotomiflorum), giant foxtail (Setaria faberii), green foxtail (Setaria viridis), goosegrass (Eleusine indica), johnsongrass (Sorghum halepense), common ragweed (Ambrosia elation), barnyardgrass (Echinochloa crus-galli), southern sandbur (Cenchrus echinatus), arrowleaf sida (Sida rhombifolia), Italian ryegrass (Lolium multiflorum), dayflower, VA (Virginia (VA) dayflower, Commelina virginica), field bindweed (Convolvulus arvensis), cocklebur (common cocklebur, Xanthium strumarium), morningglory (Ipomoea coccinea), nightshade (eastern black nightshade, Solanum ptycanthum), kochia (Kochia scoparia), yellow nutsedge (Cyperus esculentus), and hairy beggarticks (Bidens pilosa), were planted into a silt loam soil and treated preemergence with test chemicals formulated in a non-phytotoxic solvent mixture which included a surfactant.
(§4) At the same time, plants from these crop and weed species and also horseweed (Canada horseweed, Conyza canadensis), smartweed (ladysthumb smartweed, Polygonum persicaria), waterhemp_RES1, (ALS & Triazine resistant common waterhemp, Amaranthus rudis), and waterhemp_RES2, (ALS & HPPD resistant common waterhemp, Amaranthus rudis) were treated with postemergence applications of test chemicals formulated in the same manner. Plants ranged in height from 2 to 18 cm for postemergence treatments (1- to 4-leaf stage). Treated plants and controls were maintained in a greenhouse for 14 to 21 days, after which time all species were compared to controls and visually evaluated. Plant response ratings, summarized in Table F, are based on a scale of 0 to 100 where 0 is no effect and 100 is complete control. A dash (-) response means no test result.

kochia = test: Test E preemergence; format: in vivo, Kochia scoparia; conditions: 21 days, scale 0 to 100
Description: as §1, §2

common ragweed = test: Test F postemergence; format: in vivo, Ambrosia elation; conditions: scale 0 to 100
Description: as §3, §4

buckwheat, wild = test: Test E preemergence; format: in vivo, Polygonum convolvulus; conditions: 21 days, scale 0 to 100
Description: as §1, §2

pigweed, palmer = test: Test F postemergence; format: in vivo, Amaranthus palmeri; conditions: scale 0 to 100
How it was run: (§5)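 Formulated in surfactant-containing non-phytotoxic solvent; pre: applied to seeded silt loam; post: applied to plants 2–18 cm (1–4 leaves); greenhouse 14–21 d; visual 0–100 rating vs controls.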

foxtail, green = test: Test E preemergence; format: in vivo, Setaria viridis; conditions: 21 days, scale 0 to 100
Description: as §1, §2

dayflower, VA = test: Test F postemergence; format: in vivo, Commelina virginica; conditions: scale 0 to 100
How it was run: as §5

`CCCc1cc(C(=O)NCC(F)(F)F)nn1Cc1ccnc(C(F)(F)F)c1` [Compound 105] was tested, and the “Plant response rating, Ryegrass, Italian” value (ryegrass, Italian; 16 g ai/ha) was 65, the “Plant response rating, Ryegrass, Italian” value (ryegrass, Italian; 31 g ai/ha) was 85 and the “Plant response rating, Ryegrass, Italian” value (ryegrass, Italian; 62 g ai/ha) was 100. For the same compound, the “Plant response rating, Ryegrass, Italian” value (ryegrass, Italian; 125 g ai/ha) was 100, the “Plant response rating, Ryegrass, Italian” value (ryegrass, Italian; 250 g ai/ha) was 100 and the “Plant response rating, Sandbur” value (sandbur; 16 g ai/ha) was 5. The “Plant response rating, Sandbur” value (sandbur; 31 g ai/ha) was 50, the “Plant response rating, Sandbur” value (sandbur; 62 g ai/ha) was 70 and the “Plant response rating, Sandbur” value (sandbur; 125 g ai/ha) was 95. The “Plant response rating, Sandbur” value (sandbur; 250 g ai/ha) was 98, the “Plant response rating, Bluegrass” value (bluegrass; 16 g ai/ha) was 40 and the “Plant response rating, Bluegrass” value (bluegrass; 31 g ai/ha) was 70. The “Plant response rating, Bluegrass” value (bluegrass; 62 g ai/ha) was 100, the “Plant response rating, Bluegrass” value (bluegrass; 125 g ai/ha) was 100 and the “Plant response rating, Bluegrass” value (bluegrass; 250 g ai/ha) was 100. The “Plant response rating, Horseweed” value (horseweed; Postemergence, 31 g ai/ha) was 20, the “Plant response rating, Horseweed” value (horseweed; Postemergence, 125 g ai/ha) was 35 and the “Plant response rating, Horseweed” value (horseweed; Postemergence, 250 g ai/ha) was 50. For the same compound, the “Plant response rating, Horseweed” value (horseweed; postemergence, 62 g ai/ha) was 25, the “Plant response rating, Horseweed” value (horseweed; postemergence, 500 g ai/ha) was 70 and the “Plant response rating, Kochia” value (kochia; 16 g ai/ha) was 100. The “Plant response rating, Kochia” value (kochia; 31 g ai/ha) was 100, the “Plant response rating, Kochia” value (kochia; 62 g ai/ha) was 100 and the “Plant response rating, Kochia” value (kochia; 125 g ai/ha) was 100. For the same compound, the “Plant response rating, Kochia” value (kochia; 250 g ai/ha) was 100, the “Plant response rating, Common Ragweed” value (common ragweed; Postemergence, 31 g ai/ha) was 50 and the “Plant response rating, Common Ragweed” value (common ragweed; Postemergence, 125 g ai/ha) was 90. For the same compound, the “Plant response rating, Common Ragweed” value (common ragweed; Postemergence, 250 g ai/ha) was 90, the “Plant response rating, Common Ragweed” value (common ragweed; postemergence, 62 g ai/ha) was 70 and the “Plant response rating, Common Ragweed” value (common ragweed; postemergence, 500 g ai/ha) was 95. The “Plant response rating, Buckwheat, Wild” value (buckwheat, wild; 16 g ai/ha) was 100, the “Plant response rating, Buckwheat, Wild” value (buckwheat, wild; 31 g ai/ha) was 100 and the “Plant response rating, Buckwheat, Wild” value (buckwheat, wild; 62 g ai/ha) was 100. For the same compound, the “Plant response rating, Buckwheat, Wild” value (buckwheat, wild; 125 g ai/ha) was 100, the “Plant response rating, Buckwheat, Wild” value (buckwheat, wild; 250 g ai/ha) was 100 and the “Plant response rating, Pigweed, Palmer” value (pigweed, palmer; Postemergence, 31 g ai/ha) was 30. The “Plant response rating, Pigweed, Palmer” value (pigweed, palmer; Postemergence, 125 g ai/ha) was 60, the “Plant response rating, Pigweed, Palmer” value (pigweed, palmer; Postemergence, 250 g ai/ha) was 75 and the “Plant response rating, Pigweed, Palmer” value (pigweed, palmer; postemergence, 62 g ai/ha) was 25. The “Plant response rating, Pigweed, Palmer” value (pigweed, palmer; postemergence, 500 g ai/ha) was 80, the “Plant response rating, Foxtail, Green” value (foxtail, green; 16 g ai/ha) was 95 and the “Plant response rating, Foxtail, Green” value (foxtail, green; 31 g ai/ha) was 98. For the same compound, the “Plant response rating, Foxtail, Green” value (foxtail, green; 62 g ai/ha) was 100, the “Plant response rating, Foxtail, Green” value (foxtail, green; 125 g ai/ha) was 100 and the “Plant response rating, Foxtail, Green” value (foxtail, green; 250 g ai/ha) was 100. For the same compound, the “Plant response rating, Dayflower, VA” value (dayflower, VA; Postemergence, 31 g ai/ha) was 20, the “Plant response rating, Dayflower, VA” value (dayflower, VA; Postemergence, 125 g ai/ha) was 80 and the “Plant response rating, Dayflower, VA” value (dayflower, VA; Postemergence, 250 g ai/ha) was 85. The “Plant response rating, Dayflower, VA” value (dayflower, VA; postemergence, 62 g ai/ha) was 50 and the “Plant response rating, Dayflower, VA” value (dayflower, VA; postemergence, 500 g ai/ha) was 90.

In the case of `CCOc1cc(C(=O)NCC(F)(F)F)nn1Cc1ccnc(C(F)(F)F)c1` [Compound 104], the “Plant response rating, Ryegrass, Italian” value (ryegrass, Italian; 16 g ai/ha) is reported as 75, the “Plant response rating, Ryegrass, Italian” value (ryegrass, Italian; 31 g ai/ha) is reported as 98 and the “Plant response rating, Ryegrass, Italian” value (ryegrass, Italian; 62 g ai/ha) is reported as 100. The “Plant response rating, Ryegrass, Italian” value (ryegrass, Italian; 125 g ai/ha) was 100, the “Plant response rating, Ryegrass, Italian” value (ryegrass, Italian; 250 g ai/ha) was 100 and the “Plant response rating, Sandbur” value (sandbur; 16 g ai/ha) was 70. For the same compound, the “Plant response rating, Sandbur” value (sandbur; 31 g ai/ha) was 90, the “Plant response rating, Sandbur” value (sandbur; 62 g ai/ha) was 100 and the “Plant response rating, Sandbur” value (sandbur; 125 g ai/ha) was 98. The “Plant response rating, Sandbur” value (sandbur; 250 g ai/ha) was 100, the “Plant response rating, Bluegrass” value (bluegrass; 16 g ai/ha) was 85 and the “Plant response rating, Bluegrass” value (bluegrass; 31 g ai/ha) was 100. The “Plant response rating, Bluegrass” value (bluegrass; 62 g ai/ha) was 100, the “Plant response rating, Bluegrass” value (bluegrass; 125 g ai/ha) was 100 and the “Plant response rating, Bluegrass” value (bluegrass; 250 g ai/ha) was 100. For the same compound, the “Plant response rating, Horseweed” value (horseweed; Postemergence, 31 g ai/ha) was 25, the “Plant response rating, Horseweed” value (horseweed; Postemergence, 125 g ai/ha) was 35 and the “Plant response rating, Horseweed” value (horseweed; Postemergence, 250 g ai/ha) was 35. The “Plant response rating, Horseweed” value (horseweed; postemergence, 62 g ai/ha) was 30, the “Plant response rating, Horseweed” value (horseweed; postemergence, 500 g ai/ha) was 45 and the “Plant response rating, Kochia” value (kochia; 16 g ai/ha) was 100. The “Plant response rating, Kochia” value (kochia; 31 g ai/ha) was 100, the “Plant response rating, Kochia” value (kochia; 62 g ai/ha) was 100 and the “Plant response rating, Kochia” value (kochia; 125 g ai/ha) was 100. For the same compound, the “Plant response rating, Kochia” value (kochia; 250 g ai/ha) was 100, the “Plant response rating, Common Ragweed” value (common ragweed; Postemergence, 31 g ai/ha) was 40 and the “Plant response rating, Common Ragweed” value (common ragweed; Postemergence, 125 g ai/ha) was 70. The “Plant response rating, Common Ragweed” value (common ragweed; Postemergence, 250 g ai/ha) was 98, the “Plant response rating, Common Ragweed” value (common ragweed; postemergence, 62 g ai/ha) was 50 and the “Plant response rating, Common Ragweed” value (common ragweed; postemergence, 500 g ai/ha) was 98. For the same compound, the “Plant response rating, Buckwheat, Wild” value (buckwheat, wild; 16 g ai/ha) was 100, the “Plant response rating, Buckwheat, Wild” value (buckwheat, wild; 31 g ai/ha) was 100 and the “Plant response rating, Buckwheat, Wild” value (buckwheat, wild; 62 g ai/ha) was 100. The “Plant response rating, Buckwheat, Wild” value (buckwheat, wild; 125 g ai/ha) was 100, the “Plant response rating, Buckwheat, Wild” value (buckwheat, wild; 250 g ai/ha) was 100 and the “Plant response rating, Pigweed, Palmer” value (pigweed, palmer; Postemergence, 31 g ai/ha) was 60. The “Plant response rating, Pigweed, Palmer” value (pigweed, palmer; Postemergence, 125 g ai/ha) was 70, the “Plant response rating, Pigweed, Palmer” value (pigweed, palmer; Postemergence, 250 g ai/ha) was 75 and the “Plant response rating, Pigweed, Palmer” value (pigweed, palmer; postemergence, 62 g ai/ha) was 80. The “Plant response rating, Pigweed, Palmer” value (pigweed, palmer; postemergence, 500 g ai/ha) was 95, the “Plant response rating, Foxtail, Green” value (foxtail, green; 16 g ai/ha) was 100 and the “Plant response rating, Foxtail, Green” value (foxtail, green; 31 g ai/ha) was 100. The “Plant response rating, Foxtail, Green” value (foxtail, green; 62 g ai/ha) was 100, the “Plant response rating, Foxtail, Green” value (foxtail, green; 125 g ai/ha) was 100 and the “Plant response rating, Foxtail, Green” value (foxtail, green; 250 g ai/ha) was 100. For the same compound, the “Plant response rating, Dayflower, VA” value (dayflower, VA; Postemergence, 31 g ai/ha) was 35, the “Plant response rating, Dayflower, VA” value (dayflower, VA; Postemergence, 125 g ai/ha) was 70 and the “Plant response rating, Dayflower, VA” value (dayflower, VA; Postemergence, 250 g ai/ha) was 90. The “Plant response rating, Dayflower, VA” value (dayflower, VA; postemergence, 62 g ai/ha) was 55 and the “Plant response rating, Dayflower, VA” value (dayflower, VA; postemergence, 500 g ai/ha) was 95.
